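Results reflect a 48-hour exposure of cells in 96-well plates to compound at five concentrations. TGI marks complete inhibition of growth.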
How the values were obtained:
Test in all cases: growth of human tumour cells (NCI), 48 h
BT-549 breast = tested on: BT-549 breast
HT29 colon = tested on: HT29 colon
LOX IMVI melanoma = tested on: LOX IMVI melanoma
HCC-2998 colon = tested on: HCC-2998 colon
IGROV1 ovarian = tested on: IGROV1 ovarian
CCRF-CEM leukemia = tested on: CCRF-CEM leukemia
OVCAR-8 ovarian = tested on: OVCAR-8 ovarian
NCI/ADR-RES ovarian = tested on: NCI/ADR-RES ovarian
A498 renal = tested on: A498 renal
NCI-H522 lung = tested on: NCI-H522 lung
MALME-3M melanoma = tested on: MALME-3M melanoma
ACHN renal = tested on: ACHN renal

Structure (SMILES)	TGI (BT-549 breast) [µM]	TGI (HT29 colon) [µM]	TGI (LOX IMVI melanoma) [µM]	TGI (HCC-2998 colon) [µM]	TGI (IGROV1 ovarian) [µM]	TGI (CCRF-CEM leukemia) [µM]	TGI (OVCAR-8 ovarian) [µM]	TGI (NCI/ADR-RES ovarian) [µM]	TGI (A498 renal) [µM]	TGI (NCI-H522 lung) [µM]	TGI (MALME-3M melanoma) [µM]	TGI (ACHN renal) [µM]
C[C@@H](CC(=O)OCc1ccccc1)OC1OC(COC(=O)C(C)(C)C)C(OC(=O)C(C)(C)C)C(OC(=O)C(C)(C)C)C1OC(=O)C(C)(C)C (some centres not stated)	> 100	> 100	> 100	> 100	> 100	> 100	> 100	> 100	> 100	> 100	> 100	> 100
CC(N)(CC(O)(C(F)(F)Cl)C(F)(F)Cl)C(=O)O (configuration not stated)	> 10	> 10	> 10	> 10	> 10	> 10	> 10	> 10	> 10	> 10	> 10	> 10
N#Cc1c(NC(=O)C(F)(F)F)sc2c3c(=O)c4ccccc4c(=O)c=3oc3ccccc3c12	53.3	41.6	> 59.1	31	48.7	12.5	> 56	61.7	> 72.3	32.6	13.1	> 58
COc1ccccc1C1c2cc3c(cc2OC2(OC)COC(=O)C12)OCO3 (configuration not stated)	> 100	22.9	67.1	> 63.8	> 100	75.6	> 74.6	> 100	54.4	> 27.3	> 100	> 100
CCN(/C=C1/C(=O)C(c2ccccc2)N(c2ccccc2)C1=O)CC (configuration not stated)	> 10	> 10	> 10	> 10	> 10	> 10	> 10	> 10	> 10	> 10	> 10	> 10
O=c1c(-c2ccccc2)nnc2n(Cc3ccccc3)c3ccccc3n12	> 100	> 100	> 100	> 100	> 100	> 100	> 100	> 100	> 100	> 100	> 100	> 100
COc1ccc2nc3c(c(N)c2c1)C1CCC3C1(C)C (configuration not stated)	> 100	> 100	> 100	31.9	> 100	98.4	> 100	> 100	70.7	> 100	67.3	> 100
COC(=O)[C@H](Cc1ccccc1)NC(=O)c1ccc(CNC(=O)/C=C/c2csc(-c3ccccc3)n2)cc1	> 100	43.1	> 52.8	19.4	> 23.2	> 100	> 65.4	> 91.7	34.5	13.7	11.8	44
[B]C(=O)NC(CC(C)C)C(=O)NCC(=O)NC1c2ccsc2C(=O)C1O (configuration not stated) (tested in a mixture with another compound)	> 100	> 100	> 100	> 100	> 100	> 31.6	> 100	> 100	> 100	> 100	> 100	> 100
CCOC(=O)c1c2c(n(-c3ccc(C)cc3)c1C)-c1ccccc1C(=O)C2(C(=O)OCC)C(=O)OCC	55.2	> 84.3	> 84.5	69.9	> 87.7	> 100	98.4	> 85.3	97.3	79.9	> 75.5	> 100
COC(=O)[C@@H]1[C@@H]2NC(=S)N[C@@]1(C)Oc1ccccc12	> 100	> 100	> 100	> 100	> 100	> 100	> 100	> 100	> 100	> 100	> 100	> 100

— PubChem BioAssay (NCI)
